Measurements published in patent US12622915B2, “Methods of treating PDE IV-mediated diseases or conditions” (Vanda Pharmaceuticals Inc., priority 2020, dated 2026).

Legend:
[1] = Preclinical genotoxicity studies (mutations, clastogenic effects); conditions: in vitro or in vivo
Phosphodiesterase PDE8A1 = molecular target: T1, Phosphodiesterase PDE8A1 (Homo sapiens, UniProt O60658); experiment: Phosphodiesterase PDE8A1 enzyme assay; assay type: biochemical; conditions: N=2, Example 3
T1 construct: host or cells: insect Sf9 cells
T1 sequence (O60658 whole entry): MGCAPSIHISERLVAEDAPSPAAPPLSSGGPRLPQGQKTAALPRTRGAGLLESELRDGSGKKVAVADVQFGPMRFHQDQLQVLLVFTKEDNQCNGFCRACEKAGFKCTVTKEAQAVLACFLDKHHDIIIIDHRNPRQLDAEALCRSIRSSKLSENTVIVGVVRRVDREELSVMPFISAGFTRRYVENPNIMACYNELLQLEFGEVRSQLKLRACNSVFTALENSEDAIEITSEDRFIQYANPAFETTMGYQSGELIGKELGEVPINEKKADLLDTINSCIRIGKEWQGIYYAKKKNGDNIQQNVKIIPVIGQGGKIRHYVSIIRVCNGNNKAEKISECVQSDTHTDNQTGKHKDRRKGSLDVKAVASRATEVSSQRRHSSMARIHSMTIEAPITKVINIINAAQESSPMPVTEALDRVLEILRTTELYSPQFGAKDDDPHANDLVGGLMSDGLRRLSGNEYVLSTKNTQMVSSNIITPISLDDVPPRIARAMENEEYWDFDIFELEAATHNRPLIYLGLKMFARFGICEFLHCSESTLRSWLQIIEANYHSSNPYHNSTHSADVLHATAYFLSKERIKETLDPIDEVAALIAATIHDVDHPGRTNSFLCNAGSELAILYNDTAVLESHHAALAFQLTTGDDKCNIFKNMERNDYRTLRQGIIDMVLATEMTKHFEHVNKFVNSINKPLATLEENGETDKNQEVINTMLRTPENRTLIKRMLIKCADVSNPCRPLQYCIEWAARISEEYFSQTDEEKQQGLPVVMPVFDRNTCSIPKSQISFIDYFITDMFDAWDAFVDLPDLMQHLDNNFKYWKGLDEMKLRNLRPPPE
Description: (§1) Reference standards are run as an integral part of each assay to ensure the validity of the results obtained. Reference Compounds: • Phosphodiesterase PDE10A2 Papaverine • Phosphodiesterase PDE11A4 Dipyridamole • Phosphodiesterase PDE1A MMPX • Phosphodiesterase PDE2A EHNA • Phosphodiesterase PDE3A Cilostamide • Phosphodiesterase PDE4A1A Rolipram • Phosphodiesterase PDE4B1 Rolipram • Phosphodiesterase PDE5A Zaprinast • Phosphodiesterase PDE6 Zaprinast • Phosphodiesterase PDE7A IBMX • Phosphodiesterase PDE7B IBMX • Phosphodiesterase PDE8A1 Dipyridamole • Phosphodiesterase PDE9A2 Zaprinast
(§2) Phosphodiesterase PDE4A1A; Phosphodiesterase PDE4B1; Phosphodiesterase PDE10A2; Phosphodiesterase PDE11A4; Phosphodiesterase PDE2A; Phosphodiesterase PDE3A; Phosphodiesterase PDE7A; Phosphodiesterase PDE7B; and Phosphodiesterase PDE8A1: • Source: Human recombinant insect Sf9 cells • Substrate: 0.10 μM FAM-cAMP • Vehicle: 1.00% DMSO • Significance Crit.: ≥50% of max stimulation or inhibition • Incubation Buffer: 10 mM Tris-HCl, pH 7.2, 10 mM MgCl2, 0.05% NaN3, 0.1% phosphate-free BSA • Quantitation Method: Quantitation of Fluorescein-AMP-IMAP • Pre-Incub. Time/Temp: 15 minutes @25° C. • Incubation Time/Temp: 30 minutes @25° C.
(§3) IC50 values are determined by a non-linear, least squares regression analysis using MathIQ™ (ID Business Solutions Ltd., UK). […]

[2] = molecular target: T2, Phosphodiesterase PDE11A4 (Homo sapiens, UniProt Q9HCR9); experiment: Phosphodiesterase PDE11A4 enzyme assay; assay type: biochemical; conditions: N=2, Example 3
T2 construct: host or cells: insect Sf9 cells
T2 sequence (Q9HCR9 whole entry): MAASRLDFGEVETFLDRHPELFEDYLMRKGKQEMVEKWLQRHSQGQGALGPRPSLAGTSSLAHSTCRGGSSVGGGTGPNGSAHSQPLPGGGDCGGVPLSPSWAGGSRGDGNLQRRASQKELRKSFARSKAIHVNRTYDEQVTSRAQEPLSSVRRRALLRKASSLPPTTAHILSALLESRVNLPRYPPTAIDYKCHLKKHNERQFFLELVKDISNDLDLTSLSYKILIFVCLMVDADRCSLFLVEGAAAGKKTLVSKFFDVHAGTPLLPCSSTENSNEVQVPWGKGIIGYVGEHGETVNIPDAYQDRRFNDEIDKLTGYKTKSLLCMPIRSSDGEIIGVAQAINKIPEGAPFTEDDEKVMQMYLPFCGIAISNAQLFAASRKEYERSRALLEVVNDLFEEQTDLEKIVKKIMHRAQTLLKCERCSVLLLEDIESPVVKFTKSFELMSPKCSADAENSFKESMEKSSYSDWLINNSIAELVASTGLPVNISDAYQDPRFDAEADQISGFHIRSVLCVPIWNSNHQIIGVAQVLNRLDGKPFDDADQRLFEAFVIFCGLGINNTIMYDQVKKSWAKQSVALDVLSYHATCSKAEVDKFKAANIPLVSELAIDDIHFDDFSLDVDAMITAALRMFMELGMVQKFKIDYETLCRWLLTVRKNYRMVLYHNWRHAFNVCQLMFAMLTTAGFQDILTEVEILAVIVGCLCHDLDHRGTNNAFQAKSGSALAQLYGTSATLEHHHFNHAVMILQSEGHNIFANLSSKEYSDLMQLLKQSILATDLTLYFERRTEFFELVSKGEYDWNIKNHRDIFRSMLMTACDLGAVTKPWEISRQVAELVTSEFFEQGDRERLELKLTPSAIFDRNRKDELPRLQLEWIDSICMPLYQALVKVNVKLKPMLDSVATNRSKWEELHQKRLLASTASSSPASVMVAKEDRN
Description: as §1, §2, §3

[3] = Plasma and ear skin concentration in IMQ model, day 6; assay type: in vivo, BALB/c mice; conditions: day 6, post 2h treatment, topical 0.5%
Experimental: On day 6, blood is collected by retro-orbital bleeding under isoflurane anesthesia prior to euthanasia. Blood is collected in K2-EDTA tubes and plasma is separated and stored at −80° C. for further analysis (for test item concentration).
On day 6, post 2h treatment, plasma and ear skin concentration of animals treated with the compound of Formula (I) are estimated. […] The concentration in the ear skin is close to 976-fold more than the plasma levels.

Phosphodiesterase PDE1A = molecular target: T3, Phosphodiesterase PDE1A (Homo sapiens, UniProt P54750); experiment: Phosphodiesterase PDE1A enzyme assay; assay type: biochemical; conditions: N=2, Example 3
T3 construct: host or cells: insect Sf9 cells
T3 sequence (P54750 whole entry): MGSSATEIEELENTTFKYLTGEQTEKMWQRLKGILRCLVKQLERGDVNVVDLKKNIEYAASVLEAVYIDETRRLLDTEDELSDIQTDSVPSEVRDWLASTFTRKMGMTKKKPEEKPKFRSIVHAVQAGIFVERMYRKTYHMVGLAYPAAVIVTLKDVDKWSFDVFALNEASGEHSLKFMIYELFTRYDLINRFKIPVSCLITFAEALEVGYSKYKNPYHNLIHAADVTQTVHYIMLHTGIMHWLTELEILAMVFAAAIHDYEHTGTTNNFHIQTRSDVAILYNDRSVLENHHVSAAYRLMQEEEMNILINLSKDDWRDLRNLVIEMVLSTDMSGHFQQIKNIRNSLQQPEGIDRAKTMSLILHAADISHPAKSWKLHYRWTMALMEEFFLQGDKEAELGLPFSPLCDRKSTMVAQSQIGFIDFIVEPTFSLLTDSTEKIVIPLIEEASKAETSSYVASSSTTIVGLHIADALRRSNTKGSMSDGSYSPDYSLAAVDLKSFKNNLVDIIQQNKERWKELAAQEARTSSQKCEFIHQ
Description: as §1
(§4) Phosphodiesterase PDE1A; Phosphodiesterase PDE5A; and Phosphodiesterase PDE9A2: • Source: Human recombinant insect Sf9 cells • Substrate: 0.10 μM […] • Vehicle: 1.00% DMSO • Significance Crit.: ≥50% of max stimulation or inhibition • Incubation Buffer: 10 mM Tris-HCl, pH 7.2, 10 mM MgCl2, 0.05% NaN3, 0.1% phosphate-free BSA • Quantitation Method: Quantitation of Fluorescein-GMP-IMAP • Pre-Incub. Time/Temp: 15 minutes @25° C. • Incubation Time/Temp: 30 minutes @25° C.
(§5) IC50 values are determined by a non-linear, least squares regression analysis using MathIQ™ (ID Business Solutions Ltd., UK). […] Where presented, the Hill coefficient (nH), defining the slope of the competitive binding curve, is calculated using MathIQ™. […]

Phosphodiesterase PDE9A2 = molecular target: T4, Phosphodiesterase PDE9A2 (Homo sapiens, UniProt O76083); experiment: Phosphodiesterase PDE9A2 enzyme assay; assay type: biochemical; conditions: N=2, Example 3
T4 construct: host or cells: insect Sf9 cells
T4 sequence (O76083 1-533 isoform O76083-2): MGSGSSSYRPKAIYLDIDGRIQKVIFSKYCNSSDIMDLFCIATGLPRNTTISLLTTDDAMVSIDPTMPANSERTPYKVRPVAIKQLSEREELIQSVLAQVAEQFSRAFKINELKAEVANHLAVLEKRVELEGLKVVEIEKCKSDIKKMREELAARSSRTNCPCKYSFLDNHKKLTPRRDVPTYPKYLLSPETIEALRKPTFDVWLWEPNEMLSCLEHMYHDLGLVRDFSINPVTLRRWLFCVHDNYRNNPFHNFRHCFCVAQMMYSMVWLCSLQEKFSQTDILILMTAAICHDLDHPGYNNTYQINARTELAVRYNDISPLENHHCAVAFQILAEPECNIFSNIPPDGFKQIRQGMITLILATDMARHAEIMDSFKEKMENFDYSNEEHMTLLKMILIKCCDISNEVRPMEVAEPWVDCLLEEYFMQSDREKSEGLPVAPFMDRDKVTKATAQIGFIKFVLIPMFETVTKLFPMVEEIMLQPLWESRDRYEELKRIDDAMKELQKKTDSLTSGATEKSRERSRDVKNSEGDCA
Description: as §1, §4, §5

Phosphodiesterase PDE3A = molecular target: T5, Phosphodiesterase PDE3A (Homo sapiens, UniProt Q14432); experiment: Phosphodiesterase PDE3A enzyme assay; assay type: biochemical; conditions: N=2, Example 3
T5 construct: host or cells: insect Sf9 cells
T5 sequence (Q14432 whole entry): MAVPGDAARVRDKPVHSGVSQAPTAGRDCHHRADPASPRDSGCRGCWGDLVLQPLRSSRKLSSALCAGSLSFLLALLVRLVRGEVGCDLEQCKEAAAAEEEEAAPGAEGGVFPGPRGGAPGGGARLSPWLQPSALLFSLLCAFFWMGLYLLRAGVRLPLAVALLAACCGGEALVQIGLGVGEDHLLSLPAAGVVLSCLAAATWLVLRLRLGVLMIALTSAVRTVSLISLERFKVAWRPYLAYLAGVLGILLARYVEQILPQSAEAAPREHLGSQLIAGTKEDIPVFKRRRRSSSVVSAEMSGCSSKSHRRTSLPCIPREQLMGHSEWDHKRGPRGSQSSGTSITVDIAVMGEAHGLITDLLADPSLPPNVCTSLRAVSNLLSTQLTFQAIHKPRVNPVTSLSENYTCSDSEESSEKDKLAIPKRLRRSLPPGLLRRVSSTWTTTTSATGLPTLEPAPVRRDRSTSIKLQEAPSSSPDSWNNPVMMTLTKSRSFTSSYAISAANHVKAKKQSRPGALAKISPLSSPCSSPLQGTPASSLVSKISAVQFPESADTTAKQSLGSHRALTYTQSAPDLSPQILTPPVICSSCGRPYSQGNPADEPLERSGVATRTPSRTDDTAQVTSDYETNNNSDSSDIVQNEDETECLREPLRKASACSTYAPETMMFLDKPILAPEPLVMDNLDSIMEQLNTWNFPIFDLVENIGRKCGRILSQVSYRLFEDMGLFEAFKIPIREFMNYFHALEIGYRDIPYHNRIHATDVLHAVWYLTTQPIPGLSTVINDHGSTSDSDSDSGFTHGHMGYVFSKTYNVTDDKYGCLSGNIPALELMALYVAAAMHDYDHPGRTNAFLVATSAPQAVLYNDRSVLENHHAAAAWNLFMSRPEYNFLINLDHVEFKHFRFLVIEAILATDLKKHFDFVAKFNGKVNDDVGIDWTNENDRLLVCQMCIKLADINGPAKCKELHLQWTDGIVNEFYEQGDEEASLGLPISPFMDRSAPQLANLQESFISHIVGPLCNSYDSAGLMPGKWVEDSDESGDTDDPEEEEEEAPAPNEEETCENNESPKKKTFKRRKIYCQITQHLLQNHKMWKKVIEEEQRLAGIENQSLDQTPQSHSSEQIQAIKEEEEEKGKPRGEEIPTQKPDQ
Description: as §1, §2, §3

[4] = molecular target: T6, Phosphodiesterase PDE4A1A (Homo sapiens, UniProt P27815); experiment: Phosphodiesterase PDE4A1A enzyme assay; assay type: biochemical
T6 construct: host or cells: insect Sf9 cells
T6 sequence (P27815 1-647 isoform P27815-4): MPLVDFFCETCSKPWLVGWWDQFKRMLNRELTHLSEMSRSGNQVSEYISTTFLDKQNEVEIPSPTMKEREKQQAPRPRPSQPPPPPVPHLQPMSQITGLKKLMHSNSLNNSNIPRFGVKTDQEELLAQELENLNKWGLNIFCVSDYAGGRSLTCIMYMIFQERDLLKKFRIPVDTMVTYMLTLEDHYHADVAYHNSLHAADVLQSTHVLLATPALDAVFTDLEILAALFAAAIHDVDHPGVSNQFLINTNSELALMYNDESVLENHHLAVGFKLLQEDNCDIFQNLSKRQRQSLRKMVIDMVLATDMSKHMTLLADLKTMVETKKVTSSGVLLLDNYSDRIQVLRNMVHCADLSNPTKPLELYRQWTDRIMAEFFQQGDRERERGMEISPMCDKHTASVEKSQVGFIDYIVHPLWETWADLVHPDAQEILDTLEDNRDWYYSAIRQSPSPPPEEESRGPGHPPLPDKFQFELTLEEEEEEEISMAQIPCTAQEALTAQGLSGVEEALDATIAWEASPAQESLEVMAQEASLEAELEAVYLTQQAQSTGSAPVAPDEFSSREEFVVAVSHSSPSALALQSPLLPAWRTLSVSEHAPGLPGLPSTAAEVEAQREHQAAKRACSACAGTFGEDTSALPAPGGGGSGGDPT
Description: as §1
PDE4 assays are performed using methods adapted from the literature. See Richter W, et al. (2001) Identification of inhibitor binding sites of the cAMP-specific phosphodiesterase 4. Cell Signal. 13(4): 287-297; Wang H, et al. (2005) Multiple elements jointly determine inhibitor selectivity of cyclic nucleotide phosphodiesterases 4 and 7. J Biol Chem. 280(35): 30949-30955.
as §2
(§6) IC50 values are determined by a non-linear, least squares regression analysis using MathIQ™ (ID Business Solutions Ltd., UK). Where inhibition constants (Ki) are presented, the Ki values are calculated using the equation of Cheng and Prusoff (Cheng, Y., Prusoff, W. H., Biochem. Pharmacol. 22:3099-3108, 1973) using the observed IC50 of the tested compound, the concentration of radioligand employed in the assay, and the historical values for the KD of the ligand. Where presented, the Hill coefficient (nH), defining the slope of the competitive binding curve, is calculated using MathIQ™. […] Where IC50, Ki, and/or nH data are presented without Standard Error of the Mean (SEM), data are insufficient to be quantitative, and the values presented (Ki, IC50, nH) are interpreted with caution.
Reference standards are run as an integral part of each assay to ensure the validity of the results obtained. Rolipram is used for the PDE4 assays.
as §4, with “PDE4A1A:” for “PDE1A; Phosphodiesterase PDE5A; and Phosphodiesterase PDE9A2:”, “Fluorescein-AMP-IMAP” for “Fluorescein-GMP-IMAP”
as §6, with “W.H.,” for “W. H.,”

[5] = Ocular instillation studies; assay type: in vivo; conditions: preclinical ocular instillation studies

CNc1nc(Nc2ccccc2)nc(OCC(F)(F)C(F)F)n1 [compound of Formula (I), N^2-methyl-N^4-phenyl-6-(2,2,3,3-tetrafluoropropoxy)-1,3,5-triazine-2,4-diamine]
Mutations or biologically relevant clastogenic effects [1]: does not induce mutations or biologically relevant clastogenic effects | inhibition at 10 µM (Phosphodiesterase PDE8A1): 0% | inhibition at 10 µM [2]: 14% | Kp ([3]; BALB/c, mouse, ear skin / plasma, read-out: Concentration in the ear skin relative to plasma levels): ~976 | Concentrations in plasma and ear skin [3]: Significant concentrations | inhibition at 10 µM (Phosphodiesterase PDE1A): -8% | inhibition at 10 µM (Phosphodiesterase PDE9A2): -2% | inhibition at 10 µM (Phosphodiesterase PDE3A): 6% | inhibition at 0.01 µM ([4]; 10 nM, N=2, Example 4): 23% | inhibition at 0.03 µM ([4]; 0.03 μM, N=2, Example 4): 37% | inhibition at 0.1 µM ([4]; 0.1 μM, N=2, Example 4): 58% | inhibition at 0.3 µM ([4]; 0.3 μM, N=2, Example 4): 75% | inhibition at 1 µM ([4]; 1 μM, N=2, Example 4): 87% | inhibition at 3 µM ([4]; 3 μM, N=2, Example 4): 93% | inhibition at 10 µM ([4]; N=2, Example 3): 99% | inhibition at 10 µM ([4]; N=2, Example 4): 96% | IC50 ([4]; Example 4): 63 nM | Tolerability on ocular instillation [5]: well tolerated
